Four compounds from ChEMBL document CHEMBL1158021, “Okaramines H and I, new okaramine congeners, from aspergillus aculeatus” (1999) can be followed below.

The assay has as its system Bombyx mori. Kind of assay: Insecticidal activity against third instar larvae of silkworm assessed per gm diet. Format: functional.

In the case of `C=CC(C)(C)N1c2ccccc2[C@]2(O)C[C@@H]3C(=O)N4/C=C\C(C)(C)c5[nH]c6ccccc6c5/C=C\4C(=O)N3[C@H]12` [OKARAMINE A], the LD50 is 8 µg.
Under `CO[C@@H]1[C@]2(O)C(=O)N3/C=C\C(C)(C)c4[nH]c5ccccc5c4/C=C\3C(=O)N2[C@]23[C@H](C)C(C)(C)N2c2ccccc2[C@]13O` [OKARAMINE B] stands 0.2 µg.
Under `CC(C)=CCN1c2ccccc2[C@]2(O)C[C@@H]3C(=O)N4/C=C\C(C)(C)c5[nH]c6ccccc6c5/C=C\4C(=O)N3[C@H]12` [OKARAMINE H] stands more than 100 µg.
The figure for `CC1(C)/C=C\N2C(=O)[C@H]3C[C@@]4(O)c5ccccc5N[C@H]4N3C(=O)/C2=C/c2c1[nH]c1ccccc21` [OKARAMINE I] is more than 100 µg.
